This is an account of results in patent US20230174507A1, “IMIDAZOLE 3-OXIDE DERIVATIVE BASED ACSS2 INHIBITORS AND METHODS OF USE THEREOF” (METABOMED LTD., priority 2020, published 2023).

Assay [1] concerns the target T1, human ACSS1 protein (Homo sapiens, UniProt Q9NUB1).
T1 construct: purchased MyBioSource
T1 sequence (Q9NUB1 38-689): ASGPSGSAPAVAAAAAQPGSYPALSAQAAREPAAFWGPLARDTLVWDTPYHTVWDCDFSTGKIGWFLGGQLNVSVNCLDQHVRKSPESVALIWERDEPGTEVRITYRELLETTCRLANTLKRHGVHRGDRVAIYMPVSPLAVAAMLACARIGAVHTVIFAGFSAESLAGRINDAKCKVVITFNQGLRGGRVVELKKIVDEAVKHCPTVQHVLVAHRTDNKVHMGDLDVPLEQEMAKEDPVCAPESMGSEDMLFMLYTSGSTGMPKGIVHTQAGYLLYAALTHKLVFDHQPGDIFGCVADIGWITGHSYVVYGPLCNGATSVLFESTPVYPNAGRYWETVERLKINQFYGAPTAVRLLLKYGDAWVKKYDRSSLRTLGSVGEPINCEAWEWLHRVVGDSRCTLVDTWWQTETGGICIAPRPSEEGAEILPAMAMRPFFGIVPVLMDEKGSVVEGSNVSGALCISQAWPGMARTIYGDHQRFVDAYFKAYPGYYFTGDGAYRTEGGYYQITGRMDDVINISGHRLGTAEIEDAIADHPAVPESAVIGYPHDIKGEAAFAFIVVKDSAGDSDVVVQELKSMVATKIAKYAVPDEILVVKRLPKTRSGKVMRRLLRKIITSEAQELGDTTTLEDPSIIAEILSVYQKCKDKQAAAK
The assay can be described thus: ACSS1 cell-free activity assay (pyrophosphatase-coupled, Biomol green). In kind it is biochemical. The settings on record: 5 nM human ACSS1, 30 minutes at room temperature, absorbance at 620 nm. Summed up:
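5 nM human ACSS1 incubated 30 min at RT with compound in pH 7.5 Hepes buffer with 15 μM CoA, 5 mM acetate, 300 μM ATP, 2 mM MgCl2 and pyrophosphatase. Released phosphate detected with Biomol Green (30 min), absorbance 620 nm. IC50 from constrained non-linear regression.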

Assay [2] has as its target T2, human ACSS2 protein (Homo sapiens, UniProt Q9NR19).
T2 construct: purchased OriGene Technologies, Inc
Description: ACSS2 cell-free activity assay (pyrophosphatase-coupled, Biomol green). The settings on record: 10 nM human ACSS2, 90 minutes at 37 C, absorbance at 620 nm; read-out: ACSS2 Biochemical IC50. Summed up: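 10 nM human ACSS2 incubated 90 min at 37 C with compound, 300 μM ATP, 10 μM CoA, 5 mM NaAc in pH 7.5 Hepes buffer with 0.5 U/ml pyrophosphatase. Released phosphate detected with Biomol Green at 620 nm; IC50 by non-linear regression constrained to 0% and 100%.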

For assay [3], the target named is T3, ACSS2 in MDA-MB-468 cells (Homo sapiens, UniProt Q9NR19).
T3 construct: endogenous in cells; host or cells: MDA-MB-468 cells, hypoxia (1% O2)
The assay can be described thus: Cellular fatty-acid IC50: 13C-acetate incorporation into fatty acids (palmitate), LC-MS. Particulars: hypoxic conditions (1% O2), 75% charcoal stripped serum, 5 hours, 13C-acetate into palmitate, read-out: Cellular Fatty-acid IC50 High Serum MDA468; call rule not given here. In kind it is cell-based. As for the experimental part:
Cellular Fatty-Acid IC50 Determination:
The cellular activity of ACSS2 was measured in MDA-MB-468 cells under hypoxic conditions by tracing the incorporation of labelled carbons from ^13C-acetate into newly synthesized fatty acids. The assay was performed using 75% charcoal stripped serum (high serum conditions).
MDA-MB-468 cells were seeded in 12-well plates (0.35×10^6 cells per well) in plating medium (Dulbecco's Modified Eagle Medium containing 25 mM D-glucose, 1 mM sodium pyruvate, 10% v/v fetal bovine serum, and 2 mM glutamine) and incubated for 24 hours under hypoxic conditions (1% O2).
The next day, tracing medium containing DMEM (01-057-1A) containing 75% charcoal stripped serum (Biological industries 04-201-1A), 3.5 μg/mL Biotin (Sigma-Aldrich B4639), 1 mM Pyruvate, 5.5 mM Glucose, 0.65 mM Glutamine and 0.5 mM ^13C-Acetate (Sigma-Aldrich #282014) with serial dilutions of the compounds in the range of 0.000512-1000 nM were prepared. The plating medium was replaced with 1 mL tracing medium plus compounds and the cells were incubated for 5 hours under hypoxic conditions (1% O2). Plating medium in control wells (without cells or without compounds) was replaced with 1 mL tracing medium containing 0.01% v/v DMSO.
The level of ^13C-acetate incorporation into fatty acids (palmitate) was measured by LC-MS analysis and IC50 as described below:
Sample Preparation for LC-MS
• a) Cells were washed twice with cold phosphate buffered saline (PBS), scraped into 0.5 mL EDTA pH 8.0, and transferred into 1.1 mL V-shaped HPLC glass tubes. • b) The cell suspensions were centrifuged for 5 minutes at 400×g, 4° C. and the supernatants were removed. • c) Cell pellets were frozen at −80° C.
• d) Cell pellets were resuspended in 0.2 mL of 80% v/v ethanol in water containing 0.02 M NaOH in 1.1 ml glass (v-bottom) HPLC vials. • e) The vials were closed tight and incubated at 66° C. for 60 minutes. • f) Acetonitrile containing 2% v/v formic acid (150 μL) was added to each vial and the mixtures were transferred to Eppendorf tubes for centrifugation at 17 000×g for 20 minutes. • g) Supernatants were transferred to LC-MS vials.
The relative palmitate concentration was measured by LC-MS in reconstructed selected ion monitoring (RSIM) mode and negative ion mode. Samples were analyzed on a Phenomenex Kinetex 2.6 μm XB-C18 150×2.1 mm column at 45° C. (0.4 mL/minute flow rate) using: • a) A gradient from 15% A/85% C to 100% C for 0 to 2 minutes (A: water containing 5% v/v acetonitrile, 10 mM ammonium acetate, and 10 mM acetic acid; C: a mixture of 50% v/v acetonitrile and 50% v/v methanol). • b) Isocratic flow (100% C) for 2 to 5 minutes. • c) Equilibration in isocratic conditions (15% A/85% C) for 5 to 8 minutes.
Palmitate was eluted at approximately 3.4 minutes.
The percent inhibition was calculated relative to the sample without compound and after background deduction. IC50 values were calculated using non-linear regression curve fit analysis with 0% and 100% constraints (CDD Vault, Collaborative Drug Discovery, Inc. or GraphPad Prism).
The inhibitory activities of each compound against ACSS2 in MDA-MB-468 cells under high serum conditions, as determined by ^13C-acetate incorporation into fatty acids (palmitate), are presented in Table 2.

T3 sequence (Q9NR19 whole entry): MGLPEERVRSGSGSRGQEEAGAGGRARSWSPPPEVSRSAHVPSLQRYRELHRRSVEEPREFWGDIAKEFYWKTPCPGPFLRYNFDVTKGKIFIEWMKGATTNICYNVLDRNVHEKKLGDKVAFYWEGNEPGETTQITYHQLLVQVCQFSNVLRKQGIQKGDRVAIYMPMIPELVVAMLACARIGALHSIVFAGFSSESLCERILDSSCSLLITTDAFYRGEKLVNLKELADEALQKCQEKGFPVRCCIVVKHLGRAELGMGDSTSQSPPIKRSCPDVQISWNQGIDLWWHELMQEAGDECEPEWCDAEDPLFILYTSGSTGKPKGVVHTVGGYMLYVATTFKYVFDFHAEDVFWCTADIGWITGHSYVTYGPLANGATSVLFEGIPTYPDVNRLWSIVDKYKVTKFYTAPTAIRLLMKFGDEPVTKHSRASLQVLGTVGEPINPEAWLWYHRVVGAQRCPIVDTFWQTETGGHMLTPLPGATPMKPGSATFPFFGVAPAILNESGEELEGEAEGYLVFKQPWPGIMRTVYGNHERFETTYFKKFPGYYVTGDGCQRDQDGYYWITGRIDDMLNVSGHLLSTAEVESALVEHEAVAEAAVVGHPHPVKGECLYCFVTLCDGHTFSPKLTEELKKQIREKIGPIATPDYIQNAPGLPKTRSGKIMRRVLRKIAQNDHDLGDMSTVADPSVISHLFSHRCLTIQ
T2 sequence (Q9NR19 whole entry): as above

Regarding `COc1cc(F)c(-c2[nH]c(C)c(C(=O)Nc3cccc(C(F)(F)C4CC4)c3)[n+]2[O-])cc1-c1c(C)cccc1C` [Compound 137], in assay [1], the “ACSS1 Biochemical IC50 (nM)” value is “Inactive”. Also, the IC50 in assay [2] was less than 1 nM; in assay [3], more than 50 nM.

As for `CC(=O)c1cc(-c2c(C)cccc2C)cc(-c2[nH]c(C)c(C(=O)Nc3cccc(C(F)(F)C4CC4)c3)[n+]2[O-])c1` [Compound 142, 2-(5-acetyl-2′,6′-dimethyl-[1,1′-biphenyl]-3-yl)-4-((3-(cyclopropyldifluoromethyl)phenyl)carbamoyl)-5-methyl-1H-imidazole 3-oxide], the “ACSS1 Biochemical IC50 (nM)” value in assay [1] was “Inactive”. Further, the IC50 is less than 1 nM in assay [2] and more than 50 nM in assay [3].

With `Cc1cccc(C)c1-c1cc(-c2[nH]c(C)c(C(=O)Nc3cccc(C(F)(F)C4CC4)c3)[n+]2[O-])cc(C(C)O)c1` (stereo not drawn) [Compound 143, 4-((3-(cyclopropyldifluoromethyl)phenyl)carbamoyl)-2-(5-(1-hydroxyethyl)-2′,6′-dimethyl-[1,1′-biphenyl]-3-yl)-5-methyl-1H-imidazole 3-oxide], the “ACSS1 Biochemical IC50 (nM)” value in assay [1] was “Inactive”. For the same molecule, the IC50 was less than 1 nM in assay [2] and 20 to 50 nM in assay [3].

On to `CNC(=O)c1cccc(NC(=O)c2c(C)[nH]c(-c3ccc(OC)c(-c4c(C)cccc4C)c3)[n+]2[O-])c1` [Compound 146, 2-(6-methoxy-2′,6′-dimethyl-[1,1′-biphenyl]-3-yl)-5-methyl-4-((3-(methylcarbamoyl)phenyl)carbamoyl)-1H-imidazole 3-oxide], for which the “ACSS1 Biochemical IC50 (nM)” value in assay [1] is on record as “Inactive”. For the same molecule, the IC50 in assay [2] is less than 1 nM; in assay [3], less than 20 nM.

Consider `CNc1cc(-c2c(C)cccc2C)cc(-c2[nH]c(C)c(C(=O)Nc3cccc(C(F)(F)C4CC4)c3)[n+]2[O-])c1` [Compound 147, 4-((3-(cyclopropyldifluoromethyl)phenyl)carbamoyl)-2-(2′,6′-dimethyl-5-(methylamino)-[1,1′-biphenyl]-3-yl)-5-methyl-1H-imidazole 3-oxide], for which the “ACSS1 Biochemical IC50 (nM)” value in assay [1] was “Inactive”. Moreover, the IC50 in assay [2] was in the range of 1 to 30 nM; in assay [3] it was 20 to 50 nM.

For the molecule `CCC(F)(F)c1cccc(NC(=O)c2c(C)[nH]c(-c3ccc(OC)c(-c4c(C)cccc4C)n3)[n+]2[O-])c1` [Compound 149, 4-((3-(1,1-difluoropropyl)phenyl)carbamoyl)-2-(6-(2,6-dimethylphenyl)-5-methoxypyridin-2-yl)-5-methyl-1H-imidazole 3-oxide], the “ACSS1 Biochemical IC50 (nM)” value in assay [1] was “Inactive”. Moreover, the IC50 in assay [2] is less than 1 nM; in assay [3], less than 20 nM.

Consider `CCC(F)(F)c1cccc(NC(=O)c2c(C)[nH]c(-c3cc(-c4c(C)cccc4C)c(OC)cn3)[n+]2[O-])c1` [Compound 157, 4-((3-(1,1-difluoropropyl)phenyl)carbamoyl)-2-(4-(2,6-dimethylphenyl)-5-methoxypyridin-2-yl)-5-methyl-1H-imidazole 3-oxide], for which the “ACSS1 Biochemical IC50 (nM)” value in assay [1] is “Inactive”. Moreover, the IC50 in assay [2] is less than 1 nM; in assay [3], more than 50 nM.

On to `CCC(F)(F)c1cccc(NC(=O)c2c(C)[nH]c(-c3cc(CCN(C)C)c(OC)c(-c4c(C)cccc4C)c3)[n+]2[O-])c1` [Compound 169, 4-((3-(1,1-difluoropropyl)phenyl)carbamoyl)-2-(5-(2-(dimethylamino)ethyl)-6-methoxy-2′,6′-dimethyl-[1,1′-biphenyl]-3-yl)-5-methyl-1H-imidazole 3-oxide], for which the “ACSS1 Biochemical IC50 (nM)” value in assay [1] is on record as “Inactive”. In addition, the IC50 in assay [2] is less than 1 nM; in assay [3], less than 20 nM.

Regarding `COc1ccc(-c2[nH]c(C)c(C(=O)Nc3cccc(C(F)(F)F)c3)[n+]2[O-])cc1-c1c(C)cccc1C` [Compound 171, 2-(6-methoxy-2′,6′-dimethyl-[1,1′-biphenyl]-3-yl)-5-methyl-4-((3-(trifluoromethyl)phenyl)carbamoyl)-1H-imidazole 3-oxide], in assay [1], the “ACSS1 Biochemical IC50 (nM)” value was “Inactive”. The IC50 was less than 1 nM in assay [2] and less than 20 nM in assay [3].

Turning to `COc1ccc(-c2[nH]c(C)c(C(=O)Nc3cccc(C(N)=O)c3)[n+]2[O-])cc1-c1c(C)cccc1C` [Compound 172, 4-((3-carbamoylphenyl)carbamoyl)-2-(6-methoxy-2′,6′-dimethyl-[1,1′-biphenyl]-3-yl)-5-methyl-1H-imidazole 3-oxide], the “ACSS1 Biochemical IC50 (nM)” value in assay [1] is reported as “Inactive”. The values for the IC50 in assay [2] and in assay [3] were less than 1 nM and less than 20 nM, respectively.

Regarding `Cc1[nH]c(-c2ccc(OCCCN3CCCC3)cc2)[n+]([O-])c1C(=O)Nc1cccc(C(F)(F)C2CC2)c1` [Compound 174, 4-((3-(cyclopropyldifluoromethyl)phenyl)carbamoyl)-5-methyl-2-(4-(3-(pyrrolidin-1-yl)propoxy)phenyl)-1H-imidazole 3-oxide], in assay [1], the “ACSS1 Biochemical IC50 (nM)” value is on record as “Inactive”. Besides, the values for the IC50 in assay [2] and in assay [3] were 1 to 30 nM and more than 50 nM, respectively.

As for `Cc1cccc(C)c1-c1cc(CN(C)C)cc(-c2[nH]c(C)c(C(=O)Nc3cccc(C(F)(F)C4CC4)c3)[n+]2[O-])c1` [Compound 175, 4-((3-(cyclopropyldifluoromethyl)phenyl)carbamoyl)-2-(5-((dimethylamino)methyl)-2′,6′-dimethyl-[1,1′-biphenyl]-3-yl)-5-methyl-1H-imidazole 3-oxide], the “ACSS1 Biochemical IC50 (nM)” value in assay [1] is given as “Inactive”. The IC50 in assay [2] is less than 1 nM; in assay [3], less than 20 nM.

For `CNC(=O)c1cccc(NC(=O)c2c(C)[nH]c(-c3cccc(-c4c(C)cccc4C)c3)[n+]2[O-])c1` [Compound 176, 2-(2′,6′-dimethyl-[1,1′-biphenyl]-3-yl)-5-methyl-4-((3-(methylcarbamoyl)phenyl)carbamoyl)-1H-imidazole 3-oxide], the IC50 in assay [1] (read-out: ACSS1 Biochemical IC50) is more than 30 nM; in assay [2] it was less than 1 nM; in assay [3], less than 20 nM.
